Measured values reported in patent US4677100A, “Cephalosporin derivatives” (Banyu Pharmaceutical Co., Ltd., priority 1984, dated 1987).
Converted amounts (≈) assume the structure as drawn.

Assays:
E. coli NIHJJC-2 = assay: MIC, agar plate dilution method; assay type: cell-based; settings: Escherichia coli, NIHJJC2; E. coli NIHJJC-2; 10^6 CFU/ml; Sensitivity Disk Agar; read-out: Minimum Inhibitory Concentration
Description: (§1) The minimum inhibitory concentrations (MIC: μg/ml) of the compounds of the present invention against various microorganisms were measured by an agar plate dilution method (inoculum size: 10^6 CFU/ml) by using Sensitivity Disk Agar (Nissui) in comparison with Cefotaxime and Ceftazidime as comparative compounds.

E. coli ML1410/Rte16 = assay: MIC, agar plate dilution method; assay type: cell-based; settings: Escherichia coli, ML1410/RTE16, read-out: Minimum Inhibitory Concentration
Description: as §1

S. aureus NIHJJC-1 = assay: MIC, agar plate dilution method; assay type: cell-based; settings: Staphylococcus aureus, NIHJJC1; S. aureus NIHJJC-1; 10^6 CFU/ml; Sensitivity Disk Agar; read-out: Minimum Inhibitory Concentration
Description: as §1

P. vulgaris OB1043 = assay: MIC, agar plate dilution method; assay type: cell-based; settings: Proteus vulgaris; P. vulgaris OB1043; 10^6 CFU/ml; Sensitivity Disk Agar; read-out: Minimum Inhibitory Concentration
Description: as §1

S. aureus JS-1 = assay: MIC, agar plate dilution method; assay type: cell-based; settings: Staphylococcus aureus, JS1; S. aureus JS-1; 10^6 CFU/ml; Sensitivity Disk Agar; read-out: Minimum Inhibitory Concentration
Description: as §1

E. coli C/Rms149 = assay: MIC, agar plate dilution method; assay type: cell-based; settings: Escherichia coli, read-out: Minimum Inhibitory Concentration
Description: as §1

P. vulgaris No. 33 = assay: MIC, agar plate dilution method; assay type: cell-based; settings: Proteus vulgaris; P. vulgaris No. 33; 10^6 CFU/ml; Sensitivity Disk Agar; read-out: Minimum Inhibitory Concentration
Description: as §1

K. pneumoniae No. 42 = assay: MIC, agar plate dilution method; assay type: cell-based; settings: Klebsiella pneumoniae; K. pneumoniae No. 42; 10^6 CFU/ml; Sensitivity Disk Agar; read-out: Minimum Inhibitory Concentration
Description: as §1

C. freundii No. 7 = assay: MIC, agar plate dilution method; assay type: cell-based; settings: Citrobacter freundii; C. freundii No. 7; 10^6 CFU/ml; Sensitivity Disk Agar; read-out: Minimum Inhibitory Concentration
Description: as §1

S. marcescens No. 16-2 = assay: MIC, agar plate dilution method; assay type: cell-based; settings: Serratia marcescens, NO.162; S. marcescens No. 16-2; 10^6 CFU/ml; Sensitivity Disk Agar; read-out: Minimum Inhibitory Concentration
Description: as §1

E. coli CSH = assay: MIC, agar plate dilution method; assay type: cell-based; settings: Escherichia coli, read-out: Minimum Inhibitory Concentration
Description: as §1

E. cloaceae Nek 39 = assay: MIC, agar plate dilution method; assay type: cell-based; settings: E. cloaceae Nek 39; 10^6 CFU/ml; Sensitivity Disk Agar; read-out: Minimum Inhibitory Concentration
Description: as §1

E. coli CSH2 = assay: MIC, agar plate dilution method; assay type: cell-based; settings: Escherichia coli, 10^6 CFU/ml, Sensitivity Disk Agar, read-out: Minimum Inhibitory Concentration
Description: as §1

E. coli W3630/Rms212 = assay: MIC, agar plate dilution method; assay type: cell-based; settings: Escherichia coli, W3630/RMS212, read-out: Minimum Inhibitory Concentration
Description: as §1

A. calcoaceticus No. 14 = assay: MIC, agar plate dilution method; assay type: cell-based; settings: Acinetobacter calcoaceticus; for MIC: A. calcoaceticus No. 14, 10^6 CFU/ml, Sensitivity Disk Agar, read-out: Minimum Inhibitory Concentration
Description: as §1

E. coli W3630/Rms213 = assay: MIC, agar plate dilution method; assay type: cell-based; settings: Escherichia coli, W3630/RMS213, read-out: Minimum Inhibitory Concentration
Description: as §1

P. mirabilis JY10 = assay: MIC, agar plate dilution method; assay type: cell-based; settings: Proteus mirabilis; P. mirabilis JY10; 10^6 CFU/ml; Sensitivity Disk Agar; read-out: Minimum Inhibitory Concentration
Description: as §1

P. cepacia 23 = assay: MIC, agar plate dilution method; assay type: cell-based, Pseudomonas cepacia; settings: for MIC: Burkholderia cepacia, P. cepacia 23, 10^6 CFU/ml, Sensitivity Disk Agar, read-out: Minimum Inhibitory Concentration; for antibacterial activity relative to the compound of Reference Example: Pseudomonas cepacia 23
Description: as §1

P. aeruginosa AKR17 = assay: MIC, agar plate dilution method; assay type: cell-based, Pseudomonas aeruginosa; settings: for antibacterial activity relative to the compound of Reference Example: Pseudomonas aeruginosa AKR-17, resistant to all cephalosporins including Ceftazidime; for MIC: Pseudomonas aeruginosa, P. aeruginosa AKR17, 10^6 CFU/ml, Sensitivity Disk Agar, read-out: Minimum Inhibitory Concentration
Description: as §1

P. aeruginosa AK109 = assay: MIC, agar plate dilution method; assay type: cell-based, Pseudomonas aeruginosa; settings: for antibacterial activity relative to the compound of Reference Example: Pseudomonas aeruginosa AK109; for MIC: Pseudomonas aeruginosa, P. aeruginosa AK109, 10^6 CFU/ml, Sensitivity Disk Agar, read-out: Minimum Inhibitory Concentration
Description: as §1

[1] = tested on: Gram-positive bacteria and Gram-negative bacteria; assay: antibacterial activity, general statement; assay type: cell-based; settings: sensitive and resistant bacteria
Description: as §1

P. maltophilia IID 1275 = assay: MIC, agar plate dilution method; assay type: cell-based, Pseudomonas maltophilia; settings: for antibacterial activity relative to the compound of Reference Example: Pseudomonas maltophilia resistant to all cephalosporins; for MIC: Stenotrophomonas maltophilia, IID1275, P. maltophilia IID 1275, 10^6 CFU/ml, Sensitivity Disk Agar, read-out: Minimum Inhibitory Concentration
Description: as §1

Row | Compound | MIC (E. coli NIHJJC-2) | MIC (E. coli ML1410/Rte16) | MIC (S. aureus NIHJJC-1) | MIC (P. vulgaris OB1043) | MIC (S. aureus JS-1) | MIC (E. coli C/Rms149) | MIC (P. vulgaris No. 33) | MIC (K. pneumoniae No. 42) | MIC (C. freundii No. 7) | MIC (S. marcescens No. 16-2) | MIC (E. coli CSH) | MIC (E. cloaceae Nek 39) | MIC (E. coli CSH2) | MIC (E. coli W3630/Rms212) | antibacterial activity relative to the compound of Reference Example (A. calcoaceticus No. 14) | MIC (A. calcoaceticus No. 14) | MIC (E. coli W3630/Rms213) | MIC (P. mirabilis JY10) | MIC (P. cepacia 23) | antibacterial activity relative to the compound of Reference Example (P. cepacia 23) | other results
1 | C[N+]1(CC2=C(C(=O)[O-])N3C(=O)C(NC(=O)C(=NOC4(C(=O)O)CC4)c4csc(N)n4)C3SC2)Cc2cc(O)c(O)cc2C1 (stereo not drawn) [Ex. 10-E, 7-[(Z)-2-(2-aminothiazol-4-yl)-2-(1-carboxy-1-cyclopropoxyimino)acetamido]-3-(5,6-dihydroxy-2-methyl-2-isoindolinium)methyl-3-cephem-4-carboxylate] | ≤ 0.05 µg/mL | ≤ 0.05 µg/mL | 25 µg/mL (≈ 39.6 µM) | ≤ 0.05 µg/mL | > 25 µg/mL | ≤ 0.05 µg/mL | ≤ 0.05 µg/mL | 0.1 µg/mL (≈ 0.159 µM) | 1.56 µg/mL (≈ 2.47 µM) | 0.39 µg/mL (≈ 0.618 µM) | ≤ 0.05 µg/mL | ≤ 0.05 µg/mL | ≤ 0.05 µg/mL | ≤ 0.05 µg/mL | at least 32 times | 0.2 µg/mL (≈ 0.317 µM) | ≤ 0.05 µg/mL | ≤ 0.05 µg/mL | ≤ 0.05 µg/mL | at least 32 times | antibacterial activity relative to the compound of Reference Example (P. aeruginosa AKR17): at least 32 times; MIC (P. aeruginosa AKR17): 0.1 µg/mL (≈ 0.159 µM); antibacterial activity relative to the compound of Reference Example (P. aeruginosa AK109): at least 16 times; MIC (P. aeruginosa AK109): ≤ 0.05 µg/mL; antibacterial activity (in words) [1]: particularly strong antibacterial activities; antibacterial activity relative to the compound of Reference Example (P. maltophilia IID 1275): at least twice as strong; MIC (P. maltophilia IID 1275): 3.12 µg/mL (≈ 4.95 µM)
2 | C[N+]1(CC2=C(C(=O)[O-])N3C(=O)C(NC(=O)C(=NOC4(C(=O)O)CCCC4)c4csc(N)n4)C3SC2)Cc2cc(O)c(O)cc2C1 (stereo not drawn) [Ex. 12-C, 7-[(Z)-2-(2-aminothiazol-4-yl)-2-(1-carboxy-1-cyclopentyloxyimino)acetamido]-3-(5,6-dihydroxy-2-methyl-2-isoindolinium)methyl-3-cephem-4-carbcxylate] | ≤ 0.05 µg/mL | ≤ 0.05 µg/mL | 25 µg/mL (≈ 38 µM) | ≤ 0.05 µg/mL | > 25 µg/mL | ≤ 0.05 µg/mL | 0.1 µg/mL (≈ 0.152 µM) | 0.1 µg/mL (≈ 0.152 µM) | 1.56 µg/mL (≈ 2.37 µM) | 0.39 µg/mL (≈ 0.592 µM) | 0.1 µg/mL (≈ 0.152 µM) | 0.1 µg/mL (≈ 0.152 µM) | 0.1 µg/mL (≈ 0.152 µM) | ≤ 0.05 µg/mL | at least 32 times | 0.2 µg/mL (≈ 0.304 µM) | ≤ 0.05 µg/mL | ≤ 0.05 µg/mL | ≤ 0.05 µg/mL | at least 32 times | antibacterial activity relative to the compound of Reference Example (P. aeruginosa AKR17): at least 32 times; MIC (P. aeruginosa AKR17): 0.1 µg/mL (≈ 0.152 µM); antibacterial activity relative to the compound of Reference Example (P. aeruginosa AK109): at least 16 times; MIC (P. aeruginosa AK109): ≤ 0.05 µg/mL; antibacterial activity (in words) [1]: particularly strong antibacterial activities; antibacterial activity relative to the compound of Reference Example (P. maltophilia IID 1275): at least twice as strong; MIC (P. maltophilia IID 1275): 6.25 µg/mL (≈ 9.49 µM)
3 | C[N+]1(CC2=C(C(=O)[O-])N3C(=O)C(NC(=O)C(=NOC4CCCC4)c4csc(N)n4)C3SC2)Cc2cc(O)c(O)cc2C1 (stereo not drawn) [Ex. 13-D, 7-[(Z)-2-(2-aminothiazol-4-yl)-2-cyclopentyloxyiminoacetamido]-3-(5,6-dihydroxy-2-methyl-2-isoindolinium)methyl-3-cephem-4-carboxylate] | 0.05 µg/mL (≈ 0.0813 µM) | 0.05 µg/mL (≈ 0.0813 µM) | 3.12 µg/mL (≈ 5.08 µM) | 0.2 µg/mL (≈ 0.325 µM) | 12.5 µg/mL (≈ 20.3 µM) | 0.05 µg/mL (≈ 0.0813 µM) | 0.1 µg/mL (≈ 0.163 µM) | 0.1 µg/mL (≈ 0.163 µM) | 1.56 µg/mL (≈ 2.54 µM) | 0.78 µg/mL (≈ 1.27 µM) | 0.1 µg/mL (≈ 0.163 µM) | 0.05 µg/mL (≈ 0.0813 µM) | 0.1 µg/mL (≈ 0.163 µM) | 0.025 µg/mL (≈ 0.0407 µM) | at least 32 times | 0.78 µg/mL (≈ 1.27 µM) | 0.05 µg/mL (≈ 0.0813 µM) | 0.05 µg/mL (≈ 0.0813 µM) | 0.1 µg/mL (≈ 0.163 µM) | at least 32 times | antibacterial activity relative to the compound of Reference Example (P. aeruginosa AKR17): at least 32 times; MIC (P. aeruginosa AKR17): 0.39 µg/mL (≈ 0.634 µM); antibacterial activity relative to the compound of Reference Example (P. aeruginosa AK109): at least 16 times; MIC (P. aeruginosa AK109): 0.05 µg/mL (≈ 0.0813 µM); antibacterial activity (in words) [1]: particularly strong antibacterial activities; antibacterial activity relative to the compound of Reference Example (P. maltophilia IID 1275): at least twice as strong; MIC (P. maltophilia IID 1275): 12.5 µg/mL (≈ 20.3 µM)
